Values of other authors in patent publication US7655212B2, “Production of silver sulfate grains using a fluorinated additive” (Eastman Kodak Company, priority 2008, dated 2010).

What was measured:
Conditions in all cases: in polymethylmethacrylate bone cement at 0.5% concentration
Staphylococcus aureus = system: Staphylococcus aureus
Escherichia coli = system: Escherichia coli
Pseudomonas aeruginosa = system: Pseudomonas aeruginosa

[Cl][Ag] [Silver chloride]
significantly inhibit: inhibition of bacterial growth of Staphylococcus aureus (Staphylococcus aureus) | inhibition of bacterial growth of Escherichia coli (Escherichia coli) | inhibition of bacterial growth of Pseudomonas aeruginosa (Pseudomonas aeruginosa)

O=S(=O)([O-])[O-].[Ag+].[Ag+] [silver sulfate]
significantly inhibit: inhibition of bacterial growth of Staphylococcus aureus (Staphylococcus aureus) | inhibition of bacterial growth of Escherichia coli (Escherichia coli) | inhibition of bacterial growth of Pseudomonas aeruginosa (Pseudomonas aeruginosa)

silver oxide
significantly inhibit: inhibition of bacterial growth of Staphylococcus aureus (Staphylococcus aureus) | inhibition of bacterial growth of Escherichia coli (Escherichia coli) | inhibition of bacterial growth of Pseudomonas aeruginosa (Pseudomonas aeruginosa)
